Values joined by “and” are separate entries in the source; they are usually repeats but may differ in a detail not shown here. Identical values can stand only once.
How the values were obtained:
rabbit eyes = rabbit eyes [Ref. 13]; cited from earlier work
citrate blood [1] = experiment: Activated partial thromboplastin time (aPTT), Pathromtin SL test; format: biochemical, human; details: for aPTT / aPTT (sec): Example 6, single volunteer; for Activated partial thromboplastin time (aPTT) / Activated partial thromboplastin time (aPTT), mean value: Example 7; for Activated partial thromboplastin time (aPTT): individual subjects 1-11; for Activated partial thromboplastin time (aPTT), mean value: mean of 11 subjects
Method: Whole blood was taken from volunteers and enriched with trisodium citrate (0.3 mL of a 0.106 molar solution per 3 mL whole blood) (S-Monovette®, Sarstedt, Nümbrecht, Germany). Routine coagulation tests were performed on the following samples:
The following commercial coagulation tests were performed according to the prescription of the manufacturer: prothrombin time (PT) was determined using Thromborel® S test (Dade Behring GmbH, Marburg, Germany); activated partial thromboplastin time (aPTT) was determined using Pathromtin* SL test (Dade Behring GmbH, Marburg, Germany); and thrombin time (TT) was determined using BC Thrombin Reagent test (Dade Behring GmbH, Marburg, Germany).
Whole blood was taken from a single volunteer and enriched with trisodium citrate (0.3 mL of a 0.106 molar solution per 3 mL whole blood) (S-Monovette®, Sarstedt, Nümbrecht, Germany). Portions of 1.8 mL citrate blood were mixed with 0.2 mL NCT in 0.9% saline. The following final (after dilution in blood) NCT concentrations were tested separately: 1% (55 mM); 0.5% (27.5 mM); 0.25% (13.75 mM); 0.1% (5.5 mM); 0.05% (2.75 mM); 0.025% (1.375 mM); and 0.01% (0.55 mM). A control without NCT was performed in parallel. The following commercial coagulation tests were performed according to the prescription of the manufacturer: prothrombin time (PT) was determined using Thromborel® S test (Dade Behring GmbH, Marburg, Germany), activated partial thromboplastin time (aPTT) was determined using Pathromtin* SL test (Dade Behring GmbH, Marburg, Germany); thrombin time (TT) was determined using BC Thrombin Reagent test (Dade Behring GmbH, Marburg, Germany); and fibrinogen was determined using Multifibren* U test (Dade Behring GmbH, Marburg, Germany).
(§1) Whole blood was taken from 11 volunteers and enriched with trisodium citrate (0.3 mL of a 0.106 molar solution per 3 mL whole blood) (S-Monovette®, Sarstedt, Nümbrecht, Germany). Commercial coagulation tests (as described in Example 6) were performed with the following samples: […]

citrate blood [2] = experiment: International normalized ratio (INR); format: biochemical, human; details: Example 7; for International normalized ratio (INR): individual subjects 1-11; for International normalized ratio (INR), mean value: mean of 11 subjects
Method: as §1

Proteus mirabilis = experiment: Bactericidal activity of NCT without and with heparin (CFU counts); format: cell-based
Pseudomonas aeruginosa = experiment: as above; format: cell-based
Swiss mice = experiment: Intraperitoneal injection in Swiss mice; format: in vivo; details: 1% NCT i.p., a further study
D-Dimer = D-Dimer in citrate blood; format: biochemical, human; details: Example 7; for D-Dimer: individual subjects 1-11; for D-Dimer, mean value: mean of 11 subjects
Method: as §1

Balb/c mice = experiment: Injection of 1% NCT solution into the tail vein of mice (tolerability); format: in vivo, mouse
Method: In this model, injection of 1% aqueous NCT solution was tolerated at a volume that equals approximately 10% of the total blood volume of a mouse. A 1% solution contains 55 mmol/L NCT, which is more than 1000 times greater than any physiologic concentration produced by human leukocytes.
Balb/c mice were injected into the tail vein with a sterile aqueous solution of 1% NCT. Four mice were injected with 0.05 ml, four mice with 0.1 ml, one mouse with 0.2 ml, and one mouse with 0.3 ml, respectively, of the NCT solution.
In this Example, injection of 1% aqueous NCT solution was tolerated in the mouse model at a volume that equals approximately 10% of the total blood volume of a mouse.

human eyes = human eyes [Ref. 13]; cited from earlier work
[3] = tested on: Staphylococcus aureus, ATCC 25923; experiment: Bactericidal activity of NCT with heparin in human whole blood; format: cell-based; details: 37° C.
Method: FIG. 10 presents a plot of bactericidal activity of 1% NCT with 125 IE/mL heparin in human blood against Staphylococcus aureus (ATCC 25923) at […] and 37° C. Mean values±standard error of the mean of three independent experiments. P<0.01 between NCT and control samples.
Bacteria (Staphylococcus aureus, ATCC 25923 and Escherichia coli, ATCC 11229) grown in tryptic soy broth overnight were washed twice in saline and suspended in human whole blood containing 125 IE/mL heparin. Different volumes of a saline solution of NCT sodium salt were added to the suspension so that the test samples contained 10%, 25%, 50%, and 75% blood. In addition, 100% blood plus 125 IE/mL heparin was tested at which NCT was directly dissolved in blood. The final NCT concentration after mixing blood and NCT solutions was 1% in all samples. Controls contained 100% blood plus 125 IE/mL heparin and 10%, 25%, 50% and 75% blood, respectively, in saline, plus 125 IE/mL heparin without NCT. All of the solutions were incubated at 37° C. and pH 7.36-7.44 (the pH of blood). After 1, 3, 5, 10, 15, 30, 45 and 60 minutes, aliquots of 100 μL were removed and diluted tenfold or 100-fold in 0.6% sodium thiosulfate solution to inactivate the NCT. Aliquots (50 μL) of these dilutions were spread on tryptic soy agar plates. The plates were incubated at 37° C. and colony forming units of bacteria were counted after 24 and 48 hours. […]

[4] = 0.1% NCT, virtually identical experiments
[5] = 1% NCT, 125 IE/mL heparin, pH 7.1, 37° C., 1-10 min
[6] = Balb/c mice, sterile aqueous 1% NCT, 0.05-0.3 ml i.v.

For `O=S(=O)(O)CCNCl` [NCT, N-chlorotaurine], the “tolerability in topical and localized applications” value (rabbit eyes) is listed as “relatively safe and well-tolerated”, the “activated partial thromboplastin time” value (citrate blood [1]; Example 5, 1% NCT final concentration in citrate blood) is listed as “above the test limits” and the “aPTT” value (citrate blood [1]; 0.01% (0.55 mM) NCT final) is listed as 30.6 s. For the same compound, the “aPTT” value (citrate blood [1]; 0.025% (1.375 mM) NCT final) was 37.7 s, the “aPTT” value (citrate blood [1]; 0.05% (2.75 mM) NCT final) was 71.3 s and the “aPTT” value (citrate blood [1]; 0.1% (5.5 mM) NCT final) was 371.4 s. For the same compound, the “aPTT (sec)” value (citrate blood [1]; 0.25% (13.75 mM) NCT final) was “>limit”, the “aPTT (sec)” value (citrate blood [1]; 0.5% (27.5 mM) NCT final) was “>limit” and the “aPTT (sec)” value (citrate blood [1]; 1% (55 mM) NCT final) was “>limit”. The “Activated partial thromboplastin time (aPTT)” value (citrate blood [1]; 0.01% NCT) was 39 sec (2×) and 41 sec and 32 sec and 47 sec and 37 sec (2×) and 35 sec and 40 sec and 36 sec and 31 sec, the “Activated partial thromboplastin time (aPTT), mean value” (citrate blood [1]; 0.01% NCT) was 37.6 s and the “Activated partial thromboplastin time (aPTT)” value (citrate blood [1]; 0.025% NCT) was 93 sec and 113 sec and 49 sec and 238 sec and 142 sec and 129 sec and 91 sec (2×) and 167 sec and 70 sec and 71 sec. The “Activated partial thromboplastin time (aPTT), mean value” (citrate blood [1]; 0.025% NCT) was 114.0 s, the “International normalized ratio (INR)” value (citrate blood [2]; 0.01% NCT) was 1.2 (5×) and 1.3 (3×) and 1.1 (3×) and the “International normalized ratio (INR), mean value” (citrate blood [2]; 0.01% NCT) was 1.2. For the same compound, the “International normalized ratio (INR)” value (citrate blood [2]; 0.025% NCT) was 2.6 and 3.3 (2×) and 1.5 and 6 and 4.2 and 2.8 and 4.4 and 2 and 2.9 and 2.3, the “International normalized ratio (INR), mean value” (citrate blood [2]; 0.025% NCT) was 3.2 and the “influence of heparin on the killing of bacteria” value (Proteus mirabilis; [4]) was “no statistically significant influence of heparin on the killing of bacteria”. The “killing activity of NCT with vs without heparin” value (Proteus mirabilis; [5]) was “no difference in the killing activity”, the “influence of heparin on the killing of bacteria” value (Pseudomonas aeruginosa; [4]) was “no statistically significant influence of heparin on the killing of bacteria” and the “killing activity of NCT with vs without heparin” value (Pseudomonas aeruginosa; [5]) was “no difference in the killing activity”. The tolerated intraperitoneal injection (Swiss mice) was “tolerated up to one mL 1% NCT”, the D-Dimer (D-Dimer; 0.01% NCT) was 209 µg/L and 195 µg/L and 340 µg/L and 143 µg/L and 50 µg/L and 174 µg/L and 241 µg/L and 155 µg/L and 132 µg/L and 191 µg/L and 149 µg/L and the “D-Dimer, mean value” (D-Dimer; 0.01% NCT) was 179.9 µg/L. For the same compound, the D-Dimer (D-Dimer; 0.025% NCT) was 200 µg/L and 179 µg/L and 316 µg/L and 122 µg/L and 50 µg/L and 153 µg/L and 227 µg/L and 143 µg/L and 126 µg/L and 172 µg/L and 132 µg/L, the “D-Dimer, mean value” (D-Dimer; 0.025% NCT) was 165.5 µg/L and the tolerated injection volume (Balb/c mice; 1% aqueous NCT solution i.v.) was “approximately 10 % of the total blood volume of a mouse”. The “changes of behaviour after tail vein injection” value (Balb/c mice; [6]) was “no changes of behaviour”, the “survival after tail vein injection” value (Balb/c mice; [6]) was “all mice survived” and the “tolerability in topical and localized applications” value (human eyes) was “relatively safe and well-tolerated”. The “bactericidal activity in blood” value ([3]; 1% NCT dissolved in 100% blood plus 125 IE/mL heparin) was “no significant bactericidal activity was detected” and the “bactericidal activity in blood” value ([3]; 1% NCT in 10%, 25%, 50% and 75% blood plus 125 IE/mL heparin) was “demonstrated bactericidal activity”.

From patent US20110091570A1, “Compositions and Devices for Antisepsis and Anticoagulation” (priority 2008, published 2011)
